For 13 molecules, TGI results are on record in PubChem BioAssay (NCI).

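Each compound was tested at five concentrations against cells in 96-well plates for 48 hours. TGI: concentration producing complete growth inhibition.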

Common to all, as to test: growth of human tumour cells (NCI), 48 h
Experiment [1] has as its system A549 NSCLC.
Experiment [2] relates to EKVX NSCLC.
Experiment [3] relates to HL-60(TB) leukemia.
Experiment [4] has as its system KM12 colon.
Experiment [5] deals with M14 melanoma.
The test system of experiment [6] is MCF7 breast.
Experiment [7] relates to MDA-N.
Experiment [8] deals with SNB-19 CNS.
Experiment [9] concerns SNB-75 CNS.
The subject of experiment [10] is SR leukemia.
The test system of experiment [11] is T-47D breast.
Experiment [12] concerns UACC-62 melanoma.
Experiment [13] has as its system HS 578T breast.

Take `CC(=O)Nc1cccc(N2C(=O)/C(=C\c3cccc(Oc4ccccc4)c3)S(=O)(=O)C2c2ccccc2)c1` (configuration not stated): the TGI in experiment [1] is more than 100 µM; in experiment [2], more than 100 µM; in experiment [3], 50.4 µM; in experiment [4] it was more than 100 µM; in [5], more than 100 µM; in experiment [6], more than 100 µM. Also, the TGI in experiment [7] is more than 100 µM; in experiment [8], more than 100 µM; in experiment [9] it was more than 100 µM; in experiment [10], 58.3 µM; in experiment [11], more than 100 µM; in experiment [12], more than 100 µM.

Take `C[C@@H]1C(=O)O[C@H]1[C@H](O)CO`: the TGI in experiment [1], in [2], in [3], in [4], in experiment [5] and in experiment [6] was more than 100 µM in each case. Moreover, the TGI in [7], in [8], in [9], in experiment [11] and in [12] was more than 100 µM each time.

Consider `Nc1ccc(O)c2c1C(=O)c1c(N)ccc(O)c1C2=O`, for which the TGI in experiment [1], in experiment [2], in experiment [3], in experiment [4], in experiment [5] and in experiment [8] was more than 100 µM throughout. In addition, the TGI in experiment [9] and in [12] was more than 100 µM each time.

As to `COc1ccc2[nH]c3c(c2c1)CC(=O)N1CCCC(CC3O)C1` (configuration not stated), the TGI in [1], in [13], in experiment [4], in [6], in [7] and in [8] was more than 100 µM throughout. For the same molecule, the TGI in experiment [9], in experiment [11] and in experiment [12] was more than 100 µM each time.

Consider `CCCCCCCCCCCCCCCCCCNc1ccn(C2OC(CO)C(OP(=O)(O)OCC(O)COP(=O)(O)OCC3OC(n4cc(F)c(NCCCCCCCCCCCCCCCCCC)nc4=O)CC3O)C2O)c(=O)n1` (configuration not stated), for which the TGI in experiment [1], in experiment [2], in [3], in experiment [13], in experiment [4] and in experiment [5] was more than 50 µM each time. Moreover, the TGI in [6], in [7], in experiment [8], in [9], in [11] and in experiment [12] was more than 50 µM each time.

Regarding `CC(=O)O[C@H]1CC[C@H]2[C@@H]3CCC4=CC(=O)C=C[C@]4(O)[C@H]3CC[C@]12C`, the TGI is more than 87.9 µM in experiment [1]; more than 80.7 µM in experiment [2]; 52.8 µM in experiment [4]; more than 100 µM in experiment [5]; more than 83.5 µM in experiment [6]; more than 60.9 µM in experiment [7]. In addition, the TGI is more than 100 µM in [8]; 61.3 µM in experiment [9]; 5.1 µM in experiment [10]; more than 100 µM in [11]; more than 90.2 µM in experiment [12].

As for `O=C(Oc1c(Cl)cc(C2(c3cc(Cl)c(OC(=O)c4ccccc4)c(Cl)c3)CCCCC2)cc1Cl)c1ccccc1`, the TGI in experiment [1] was 37.1 µM; in experiment [2], 24.9 µM; in experiment [3] it was 23.5 µM; in [13], 32.4 µM; in experiment [4], 23.9 µM; in experiment [5], 30.3 µM. The TGI worked out at 25.2 µM in experiment [6]; 25.6 µM in experiment [7]; 35.4 µM in [8]; 26.9 µM in experiment [9]; 37.2 µM in experiment [11]; 22.5 µM in experiment [12].

Turning to `O=C(CSCC(=O)N/N=C/c1ccccc1)N/N=C\c1ccccc1`, the TGI in experiment [1], in [2], in experiment [13], in [4], in experiment [5] and in [6] was more than 100 µM each time. Also, the TGI in experiment [8], in [9], in experiment [11] and in experiment [12] was more than 100 µM throughout.

With `COc1ccc(-c2nc3c(nc2-c2ccc(OC)cc2)C(N)=NS(=O)(=O)N3)cc1`, the TGI in experiment [1], in experiment [2], in [3], in experiment [4], in experiment [8] and in experiment [9] was more than 100 µM in each case. This molecule came in with a TGI in experiment [12] of more than 100 µM.

In the case of `CCCCN1C(=O)c2c(Br)sc(Br)c2C1=O`, the TGI in [1] was 70.3 µM; in [2] it was more than 100 µM; in [4] it was 87.5 µM; in [5], more than 100 µM; in experiment [6] it was more than 100 µM; in experiment [7] it was more than 100 µM. Also, the TGI in experiment [8] was more than 100 µM; in [9], 90.5 µM; in [10], 85.6 µM; in [11], more than 100 µM; in [12] it was more than 100 µM.

With `O=C(NCCC1CN(C(=O)OCc2ccccc2)c2ccccc21)OCc1ccccc1` (configuration not stated), the TGI in [1], in experiment [2], in experiment [13], in experiment [4], in experiment [5] and in experiment [6] was more than 100 µM in each case. Moreover, the TGI in experiment [7], in experiment [8], in [9] and in experiment [12] was more than 100 µM throughout.

For the molecule `CCc1n[nH]c(=O)n1/N=C(\C)c1ccc([N+](=O)[O-])cc1`, the TGI in experiment [1], in experiment [2], in [3], in experiment [13], in experiment [4] and in [5] was more than 100 µM in each case. The TGI in [6], in [7], in [8], in [11] and in experiment [12] was more than 100 µM in each case.

`CN(C)CCNC(=O)c1cc(Cl)cc2cc3ccccc3nc12`: the TGI in experiment [1] is 3.88 µM; in [2], 4.81 µM; in experiment [3] it was 2.62 µM; in [4], 10.1 µM; in [6] it was 4.53 µM; in experiment [8] it was 7.47 µM. Further, the figures for the TGI in experiment [9] and in experiment [12] were 6.09 µM and 1.98 µM, respectively.
